Measured values taken from patent publication US9056886B2, “Guanosine-rich modified oligonucleotides and antiproliferative activity thereof” (APTABIO THERAPEUTICS INC., priority 2009, dated 2015).
[5FU] = 5-fluoro-uracil base (5-fluoro-2'-deoxyuridine); [GEM] = 2',2'-difluoro-2'-deoxycytidine (gemcitabine); d = 2'-deoxy (DNA)

How the values were obtained:
[1] = system: HCT116 (Rectal Cancer Cells); experiment: Cell apoptosis (XTT method) in HCT116 cells; format: cell-based
Method: [Worded in the source for another cell line; this cell line is reported under the same test.] (§1) Each oligonucleotide was diluted in 10 mM Tris-HCl (pH 7.4) to a final concentration of 100 μM. The diluted solution was placed at 94° C. for 5 minutes and then quickly placed them on ice and left therein for 5 minutes. The resultant was added with 2M KCl to a final concentration of 50 mM, left at 60° C. for 3 hours and then slowly cooled down to room temperature.
(§2) One day before the experiment, 190 μL of culture, wherein PC-3 cell line(prostate cancer cell) was suspended at a concentration of 10^3-10^4/mL, was inoculated respectively into each well of a 96 well plate. The next day, 10 μL of the oligonucleotide solution prepared in Example 1 was added and cultured for six days. Six days after the inoculation, cell apoptosis rate measured by means of XTT method [JBC 1999, 26369].
(§3) As a result, it was confirmed that the cell apoptosis rate of APT-2001, APT-2002 and APT-2003 (the novel modified oligonucleotides of the present invention), was 3-10 times higher than those of APT-4001 (positive control) and APT-4002 (negative control) as measured in terms of IC50 or IC90 (FIG. 2). […] In addition, the cell apoptotic activity of the oligonucleotides, prepared according to the present invention over the K562 CML (chronic myeloid leukemia), MV-4-11 AML (acute leukemia) cells, were also verified.

[2] = system: A498 (Kidney Cancer Cells); experiment: Cell apoptosis (XTT method) in A498 cells; format: cell-based
[3] = system: mice; experiment: Toxicity test in mice; format: in vivo; conditions: 1 g/kg administered, 10 mice/group, observed for the next 7 days
Method: Toxicity test was performed on the active ingredient of the present invention as follows.
Each of APT-2001, APT-2002 and APT-2003 was dissolved in dimethylsulfoxide (DMSO), diluted with water and then administered to mice (10 mice/group) in the amount of 1 g/kg.

[4] = system: MCF7-DX (Breast Cancer Cells), a drug-resistance cell line; experiment: Cell apoptosis (XTT method) in MCF7-DX cells; format: cell-based
Method: [Worded in the source for another cell line; this cell line is reported under the same test.] as §1, §2, §3

[5] = system: A549 (Non-small Cell Carcinoma Cells); experiment: Cell apoptosis (XTT method) in A549 cells; format: cell-based
[6] = system: MCF7 (Breast Cancer Cells); experiment: Cell apoptosis (XTT method) in MCF7 cells; format: cell-based
Method: [Worded in the source for another cell line; this cell line is reported under the same test.] as §1, §2, §3

[7] = system: PC-3 cell line (prostate cancer cell); experiment: Cell apoptosis (XTT method) in PC-3 cells; format: cell-based; conditions: for IC50: PC3 (Prostate Cancer Cells), cultured six days, XTT
Method: as §1, §2

For “APT-2002: NNNGGTGGTGGTGGTTGTGGTGGTGGTGG (SEQ. ID. NO. 2); N=5-F-deoxyuridine, G=2-deoxy-guanosine, H=thymidine (DNA UUUGGTGGTGGTGGTTGTGGTGGTGGTGG; DNA, [5FU] at 1, 2, 3, backbone not given here)”, the IC50 [1] was 2100 nM, the IC50 [2] was < 100 nM and the survival of mice [3] was “all mice survived”. It also gave an IC50 [4] of 600 nM, an IC50 [5] of 5200 nM and an IC50 [6] of 8900 nM. The IC50 [7] was 2600 nM and the “cell apoptotic activity compared to APT-4001 (positive control)” value ([7]; even at a smaller amount than APT-4001, FIG. 3) was “superior cell apoptotic activity”.
In the case of “APT-2064: GGNGGTGGTTGTGGTGGNGG (SEQ. ID. NO. 41); N=2′,2′-difluoro deoxycytidine, G=2-deoxy-guanosine, H=thymidine (DNA GGCGGTGGTTGTGGTGGCGG; sugars from the 5' end d2 [GEM]1 d14 [GEM]1 d2, backbone not given here; G-quadruplex forming oligonucleotide)”, the IC50 [4] is reported as 8 nM and the IC50 [7] is reported as 16 nM.
With “APT-2035: GGTGGTGGTTNTGGTGGTGG (SEQ. ID. NO. 24); N=2′,2′-difluoro deoxycytidine, G=2-deoxy-guanosine, H=thymidine (2',2'-difluoro deoxycytidine modified nucleosides, chemistry not fully specified)” the IC50 [4] was 7 nM and the IC50 [7] was 35 nM.
With “APT-2031: GGTGGTGGTNNTGGTGGTGG (SEQ. ID. NO. 23); N=5-F-deoxyuridine, G=2-deoxy-guanosine, H=thymidine (DNA GGTGGTGGTUUTGGTGGTGG; aptamer; DNA, [5FU] at 10, 11, backbone not given here)” the IC50 [4] was 1500 nM and the IC50 [7] was > 10000 nM.
“APT-4002: Negative control, TTTCCTCCTCCTCCTTCTCCTCCTCCTCC (SEQ. ID. NO. 49); thymidine, 2′-deoxycytidine (DNA, backbone not given here) [reference compound]” was tested, and the IC50 [1] was > 50000 nM, the IC50 [2] was > 50000 nM and the IC50 [4] was > 50000 nM. The IC50 [5] was > 50000 nM and the IC50 [7] was > 50000 nM.
“APT-2022: GGTGGNNNNGGTGG (SEQ. ID. NO. 20); N=5-F-deoxyuridine, G=2-deoxy-guanosine, H=thymidine (DNA GGTGGUUUUGGTGG; DNA, [5FU] at 6, 7, 8, 9, backbone not given here)” showed an IC50 [4] of 790 nM and an IC50 [7] of 110 nM.
“APT-2033: GGTGGTGGTTTNGGTGGTGG (SEQ. ID. NO. 25); N=5-F-deoxyuridine, G=2-deoxy-guanosine, H=thymidine (DNA GGTGGTGGTTTUGGTGGTGG; aptamer; DNA, [5FU] at 12, backbone not given here)” was tested, and the IC50 [4] was 3300 nM and the IC50 [7] was > 10000 nM.
